From article PMC12096669, “Structural isomerisation affects the antitubercular activity of adamantyl-isoxyl adducts” (Journal of Enzyme Inhibition and Medicinal Chemistry, 2025) come the findings set out here.

In brackets after ≈: the same amount, converted by molar mass.

Broadly, the IC50 is the point on the concentration scale where inhibition reaches its midpoint.

The subject of one experiment is Mtb mc^27902 pMV261.
Assay: not given
Settings: not given
It is filed as cell-based, Mycobacterium tuberculosis.
Turning to `CC(C)CCOc1ccc(NC(=S)NC23CC4CC(CC(C4)C2)C3)cc1` [Ad-1-ISO, 1-((3s,5s,7s)-adamantan-1-yl)-3–(4-(isopentyloxy)phenyl)thiourea], the “effect on mycolic acid biosynthesis (FAMEs/MAMEs, TLC/autoradiography)” value is reported as “Depletion of mycolates into the cell wall was only observed at the highest concentrations tested”.

Still in this experiment, the particulars now being: at the highest concentrations; […].
Regarding `CC(C)CCOc1ccc(NC(=S)NC23CC4CC(CC(C4)C2)C3)cc1` [Ad-1-ISO, 1-((3s,5s,7s)-adamantan-1-yl)-3–(4-(isopentyloxy)phenyl)thiourea], the “TMM levels (TLC)” value is reported as “slight increase in the TMM levels”.

A further experiment relates to Mtb mc^27902 pMV261. Description: microbe, parasite or virus in culture. The conditions noted are these: Mycobacterium tuberculosis; mc^27902 pMV261; REMA; read-out: Mtb MIC95. It is filed as cell-based.
For `CC(C)CCOc1ccc(NC(=S)NC23CC4CC(CC(C4)C2)C3)cc1` [Ad-1-ISO, 1-((3s,5s,7s)-adamantan-1-yl)-3–(4-(isopentyloxy)phenyl)thiourea], the MIC was determined as 1.08 µg/mL (≈ 2.9 µM).

In a further experiment the test system is AC10 hybrid adult ventricular cardiomyocytes. Put plainly: MTS cytotoxicity assay, cardiomyocytes. The format is cell-based. The note with it: Homo sapiens, AC10 cardiac, 96 h, read-out: MTS percentage survival @ 100 µM.
Consider `CC(C)CCOc1ccc(NC(=S)NC23CC4CC(CC(C4)C2)C3)cc1` [Ad-1-ISO, 1-((3s,5s,7s)-adamantan-1-yl)-3–(4-(isopentyloxy)phenyl)thiourea], for which the viability at 100 µM was found to be 55 ± 13.2%.

The subject of a further experiment is P. aeruginosa DSM 19880. Description: Non-mycobacterial REMA assay. It is filed as cell-based. The conditions noted are these: Pseudomonas aeruginosa, DSM19880, read-out: Minimum inhibitory concentration 95%.
For `CC(C)CCOc1ccc(NC(=S)NC23CC4CC(CC(C4)C2)C3)cc1` [Ad-1-ISO, 1-((3s,5s,7s)-adamantan-1-yl)-3–(4-(isopentyloxy)phenyl)thiourea], the MIC is above 32 µg/mL.

The next experiment relates to S. aureus NCTC 2981. Description: Non-mycobacterial REMA assay. It is filed as cell-based. The conditions noted are these: Staphylococcus aureus, NCTC2981, read-out: Minimum inhibitory concentration 95%.
Regarding `CC(C)CCOc1ccc(NC(=S)NC23CC4CC(CC(C4)C2)C3)cc1` [Ad-1-ISO, 1-((3s,5s,7s)-adamantan-1-yl)-3–(4-(isopentyloxy)phenyl)thiourea], the MIC was above 32 µg/mL.

In a further experiment the test system is E. faecalis NCTC 775. Put plainly: Non-mycobacterial REMA assay. The format is cell-based. The conditions noted are these: Enterococcus faecalis, NCTC775, read-out: Minimum inhibitory concentration 95%.
On to `CC(C)CCOc1ccc(NC(=S)NC23CC4CC(CC(C4)C2)C3)cc1` [Ad-1-ISO, 1-((3s,5s,7s)-adamantan-1-yl)-3–(4-(isopentyloxy)phenyl)thiourea], for which the MIC was above 32 µg/mL.

Another experiment relates to S. pyogenes NCTC 8198. Description: Non-mycobacterial REMA assay. It is filed as cell-based. The note with it: Streptococcus pyogenes, NCTC8198, read-out: Minimum inhibitory concentration 95%.
As for `CC(C)CCOc1ccc(NC(=S)NC23CC4CC(CC(C4)C2)C3)cc1` [Ad-1-ISO, 1-((3s,5s,7s)-adamantan-1-yl)-3–(4-(isopentyloxy)phenyl)thiourea], the MIC was above 32 µg/mL.

The subject of a further experiment is B. cereus NCTC 7464. Put plainly: Non-mycobacterial REMA assay. It is filed as cell-based. The conditions noted are these: Bacillus cereus, NCTC7464, read-out: Minimum inhibitory concentration 95%.
Regarding `CC(C)CCOc1ccc(NC(=S)NC23CC4CC(CC(C4)C2)C3)cc1` [Ad-1-ISO, 1-((3s,5s,7s)-adamantan-1-yl)-3–(4-(isopentyloxy)phenyl)thiourea], the MIC is above 32 µg/mL.

A further experiment deals with E. faecium NCTC 7171. Description: Non-mycobacterial REMA assay. The note with it: Enterococcus faecium, NCTC7171, read-out: Minimum inhibitory concentration 95%. The format is cell-based.
On to `CC(C)CCOc1ccc(NC(=S)NC23CC4CC(CC(C4)C2)C3)cc1` [Ad-1-ISO, 1-((3s,5s,7s)-adamantan-1-yl)-3–(4-(isopentyloxy)phenyl)thiourea], for which the MIC was above 32 µg/mL.

Another experiment deals with K. pneumoniae NCTC 9633. Description: Non-mycobacterial REMA assay. The conditions noted are these: Klebsiella pneumoniae, NCTC9633, read-out: Minimum inhibitory concentration 95%. The format is cell-based.
With `CC(C)CCOc1ccc(NC(=S)NC23CC4CC(CC(C4)C2)C3)cc1` [Ad-1-ISO, 1-((3s,5s,7s)-adamantan-1-yl)-3–(4-(isopentyloxy)phenyl)thiourea], the MIC was above 32 µg/mL.

The test system of the next experiment is RAW264.7 murine macrophage cells. Description: cells. The note with it: Mus musculus, RAW264.7, 96 h, RAW264.7 macrophage; 100 µM; 96 h; read-out: MTS percentage survival @ 100 µM. It is filed as cell-based.
Turning to `CC(C)CCOc1ccc(NC(=S)NC23CC4CC(CC(C4)C2)C3)cc1` [Ad-1-ISO, 1-((3s,5s,7s)-adamantan-1-yl)-3–(4-(isopentyloxy)phenyl)thiourea], the viability at 100 µM was 73.8 ± 7.5%.

Staying with this experiment, now noted: Mus musculus; RAW264.7 macrophages; 0 to 100 µM; read-out: IC50 (cell viability, MTS assay).
On to `CC(C)CCOc1ccc(NC(=S)NC23CC4CC(CC(C4)C2)C3)cc1` [Ad-1-ISO, 1-((3s,5s,7s)-adamantan-1-yl)-3–(4-(isopentyloxy)phenyl)thiourea], for which the IC50 was above 100 µM.

The experiment is the same for the next values; noted with them: from RAW264.7 IC50 and Mtb MIC95.
With `CC(C)CCOc1ccc(NC(=S)NC23CC4CC(CC(C4)C2)C3)cc1` [Ad-1-ISO, 1-((3s,5s,7s)-adamantan-1-yl)-3–(4-(isopentyloxy)phenyl)thiourea], the “selectivity index (SI)” value is above 100.

The next experiment has as its system Mtb mc^27902 pMV261.
Assay: not given
The conditions noted are these: in the presence of glucose; 37 °C, 30 min. The format is cell-based, Mycobacterium tuberculosis.
As to `CC(C)CCOc1ccc(NC(=S)NC23CC4CC(CC(C4)C2)C3)cc1` [Ad-1-ISO, 1-((3s,5s,7s)-adamantan-1-yl)-3–(4-(isopentyloxy)phenyl)thiourea], the “efflux of EtBr” value is “significantly increased the overall efflux of EtBr”.

In another experiment the test system is E. coli K12. Put plainly: Non-mycobacterial REMA assay. The format is cell-based. The conditions noted are these: Escherichia coli, read-out: Minimum inhibitory concentration 95%. As for the experimental part:
(§1) Bacterial minimum inhibition concentrations (MIC) were determined using the Resazurin Microtiter Assay (REMA) method according to Palomino et al.[28] Stock solutions of the tested compounds were prepared in sterile dimethyl sulfoxide (DMSO), then diluted in 7H9OPALPen^1Cyc^10(Kan^25) to obtain a final drug concentration range of 32–0.032 μg/mL. A suspension of the test Mycobacterium was cultured in 7H9OPALPen^1Cyc^10(Kan^25) containing 0.05% v/v Tween^80 for one week at 37 °C, 5% CO2. The bacterial suspension was adjusted to 0.5 McFarland and diluted in 7H9OPALPen^1Cyc^10(Kan^25) 1:25. 100 μL of the inoculum was added to each well of a 96-well microplate together with 100 μL of the compound titration. The plate was incubated at 37 °C, 5% CO2. After 5 days, 10.5 μL 0.1% (w/v) sterile resazurin (solubilised in sterile PBS containing 0.02% v/v Tween^80) was added. Reduced resazurin was detected using fluorescence (Ex/Em 530/590 nm) in a FLUOstar Optima, BMG Labtech. All titre measurements were plotted in SigmaPlot™ and 4-parameter logistic (4PL) model regressions conducted. The relative MIC95 of each curve was calculated and averaged (Table 1). Testing was performed in duplicate with two independent biological repeats. […] Though, for these cultures, dilutions were performed at 1:125 prior to inoculation of the plate and incubation for 4 h (Supplementary Table 3). Known antitubercular agents used in this study were rifampicin (RIF), isoniazid (INH), ISO, EMB, ethionamide (ETH), linezolid (LZD), delamanid (DEL) and moxifloxacin (MOX).
Regarding `CC(C)CCOc1ccc(NC(=S)NC23CC4CC(CC(C4)C2)C3)cc1` [Ad-1-ISO, 1-((3s,5s,7s)-adamantan-1-yl)-3–(4-(isopentyloxy)phenyl)thiourea], the MIC was above 32 µg/mL.

The next experiment has as its system S. enterica NCTC 6754. Description: Non-mycobacterial REMA assay. It is filed as cell-based. The conditions noted are these: Salmonella enterica, NCTC6754, read-out: Minimum inhibitory concentration 95%. As for the experimental part: as §1
For `CC(C)CCOc1ccc(NC(=S)NC23CC4CC(CC(C4)C2)C3)cc1` [Ad-1-ISO, 1-((3s,5s,7s)-adamantan-1-yl)-3–(4-(isopentyloxy)phenyl)thiourea], the MIC was above 32 µg/mL.

The subject of a further experiment is HepG2 human liver cancer cell line. Put plainly: MTS cytotoxicity assay, liver cells. The note with it: 96 h, read-out: MTS percentage survival @ 100 µM. It is filed as cell-based. A general note: Formazan colour is commonly taken as a measure of viable cells.
`CC(C)CCOc1ccc(NC(=S)NC23CC4CC(CC(C4)C2)C3)cc1` [Ad-1-ISO, 1-((3s,5s,7s)-adamantan-1-yl)-3–(4-(isopentyloxy)phenyl)thiourea]: the viability at 100 µM worked out at 16.1 ± 7.2%.

Another experiment relates to S. agalactiae NCTC 8181. Put plainly: Non-mycobacterial REMA assay. It is filed as cell-based. The conditions noted are these: Streptococcus agalactiae, NCTC8181, read-out: Minimum inhibitory concentration 95%.
Turning to `CC(C)CCOc1ccc(NC(=S)NC23CC4CC(CC(C4)C2)C3)cc1` [Ad-1-ISO, 1-((3s,5s,7s)-adamantan-1-yl)-3–(4-(isopentyloxy)phenyl)thiourea], the MIC is above 32 µg/mL.

The subject of a further experiment is E. cloacae NCTC 10005. Description: Non-mycobacterial REMA assay. It is filed as cell-based. The conditions noted are these: Enterobacter cloacae, NCTC10005, read-out: Minimum inhibitory concentration 95%.
Consider `CC(C)CCOc1ccc(NC(=S)NC23CC4CC(CC(C4)C2)C3)cc1` [Ad-1-ISO, 1-((3s,5s,7s)-adamantan-1-yl)-3–(4-(isopentyloxy)phenyl)thiourea], for which the MIC was above 32 µg/mL.

In another experiment the test system is A. baumannii NCTC 12156. Description: Non-mycobacterial REMA assay. The format is cell-based. The note with it: Acinetobacter baumannii, NCTC12156, read-out: Minimum inhibitory concentration 95%.
Turning to `CC(C)CCOc1ccc(NC(=S)NC23CC4CC(CC(C4)C2)C3)cc1` [Ad-1-ISO, 1-((3s,5s,7s)-adamantan-1-yl)-3–(4-(isopentyloxy)phenyl)thiourea], the MIC was above 32 µg/mL.
